# Laboratory results published in US20170071944A1, “MODULATORS OF TOLL-LIKE RECEPTORS FOR THE TREATMENT OF HIV” (Gilead Sciences, Inc., priority 2015, published 2017).
# System: immune cell subsets in PBMC cultures from HIV-1 infected subjects on cART
# Experiment: Induced immune cell activation in PBMC cultures from HIV-1 infected subjects on cART (flow cytometry)
# Type: cell-based, human
# Details: for B Cells CD69 % / B Cells CD69 Fold vs DMSO / B Cells CD80 % / B Cells CD80 Fold vs DMSO / DCs CD69 % / DCs CD69 Fold vs DMSO / DCs CD80 % / DCs CD80 Fold vs DMSO / CD4+ T Cells CD25 % / CD4+ T Cells CD25 Fold vs DMSO / CD4+ T Cells CD69 % / CD4+ T Cells CD69 Fold vs DMSO / CD4+ T Cells Perforin % / CD4+ T Cells Perforin Fold vs DMSO / CD8+ T Cells CD25 % / CD8+ T Cells CD25 Fold vs DMSO / CD8+ T Cells CD28 % / CD8+ T Cells CD28 Fold vs DMSO / CD8+ T Cells CD38 % / CD8+ T Cells CD38 Fold vs DMSO / CD8+ T Cells CD69 % / CD8+ T Cells CD69 Fold vs DMSO / Monocytes CD11c % / Monocytes CD11c Fold vs DMSO / Monocytes CD69 % / Monocytes CD69 Fold vs DMSO / Monocytes CD80 % / Monocytes CD80 Fold vs DMSO / NK Cells CD25 % / NK Cells CD25 Fold vs DMSO / NK Cells CD69 % / NK Cells CD69 Fold vs DMSO: 2 days, geometric mean; for B Cells CD69 % / B Cells CD69 Fold vs DMSO / B Cells CD80 % / B Cells CD80 Fold vs DMSO / DCs CD69 % / DCs CD69 Fold vs DMSO / DCs CD80 % / DCs CD80 Fold vs DMSO: N = 4; for CD4+ T Cells CD25 % / CD4+ T Cells CD25 Fold vs DMSO / CD4+ T Cells CD69 % / CD4+ T Cells CD69 Fold vs DMSO / CD4+ T Cells Perforin % / CD4+ T Cells Perforin Fold vs DMSO / CD8+ T Cells CD25 % / CD8+ T Cells CD25 Fold vs DMSO / CD8+ T Cells CD28 % / CD8+ T Cells CD28 Fold vs DMSO / CD8+ T Cells CD38 % / CD8+ T Cells CD38 Fold vs DMSO / CD8+ T Cells CD69 % / CD8+ T Cells CD69 Fold vs DMSO / Monocytes CD11c % / Monocytes CD11c Fold vs DMSO / Monocytes CD69 % / Monocytes CD69 Fold vs DMSO / Monocytes CD80 % / Monocytes CD80 Fold vs DMSO / NK Cells CD25 % / NK Cells CD25 Fold vs DMSO / NK Cells CD69 % / NK Cells CD69 Fold vs DMSO: N = 6
# Method: TLR8 modulating compound affects activation of distinct cell populations, PBMCs were purified from HIV-1 infected subjects on cART, as described in Example 121 (anonymized participant IDs 184, 185, 188, 189, 190, and 191). […] After incubation, PBMCs were harvested and stained with antibodies conjugated to specific fluorophores (BD Biosciences) to delineate immune cell subsets: CD4 T cells (CD3+ CD4+ CD8-), CD8 T cells (CD3+ CD8+ CD4-), NK cells (CD3-CD56+ CD16+), monocytes (CD3-CD14+), B cells (CD3-CD19+), and peripheral dendritic cells (DCs), defined as positive for HLA-DR and negative for a panel of markers: CD3, CD14, CD16, CD19, CD20, CD56 (Lin-1 lineage panel, BD Biosciences).
# Additional markers of activation, maturation, and effector function were included for cell subsets, as follows: CD4 and CD8 T cells (CD25, CD38, CD69, IFN-γ, granzyme B, perforin, TNF-α), NK cells (CD25, CD69, IFN-γ), monocytes (CD11c, CD16, CD80, CD86, CD163, TNF-α), B cells (CD40, CD69, CD80, CD86), and DC (CD11c, CD69, CD80, CD86, CD123, and CD163). Cells were stained for surface markers (CD3, CD4, CD8, CD11c, CD14, CD16, CD25, CD69, CD80, CD86, CD163), washed, treated with fixation and permeabilization buffer (eBioscience), and stained for intracellular markers (IFN-γ, granzyme B, perforin, TNF-α). Cells were evaluated by flow cytometry on a LSR Fortessa (BD Biosciences), and data was analyzed with FlowJo software (TreeStar).
# Data are expressed as geometric mean percentage (%) and as geometric mean fold-activation (Fold) for each marker and for each PBMC subset obtained from 4 or 6 subjects, as indicated. Fold activation is calculated as a ratio of the % positive for each marker for each PBMC subset at the indicated concentration of the compound of Example 15 relative to % positive for DMSO treated samples. Fold activations that are 1.5 are in bold.
smiles,measurement,setting,value
CCCC[C@H](CO)Nc1nc(N)nc2cccnc12 [Example 15],B Cells CD69 %,Example 15 1000 nM,9.1%
same,B Cells CD69 Fold vs DMSO,Example 15 1000 nM,1.1 fold
same,B Cells CD80 %,Example 15 1000 nM,2.2%
same,B Cells CD80 Fold vs DMSO,Example 15 1000 nM,1.4 fold
same,DCs CD69 %,Example 15 1000 nM,8.5%
same,DCs CD69 Fold vs DMSO,Example 15 1000 nM,3.3 fold
same,DCs CD80 %,Example 15 1000 nM,82.0%
same,DCs CD80 Fold vs DMSO,Example 15 1000 nM,2.9 fold
same,CD4+ T Cells CD25 %,Example 15 1000 nM,4.2%
same,CD4+ T Cells CD25 Fold vs DMSO,Example 15 1000 nM,1.8 fold
same,CD4+ T Cells CD69 %,Example 15 1000 nM,11.7%
same,CD4+ T Cells CD69 Fold vs DMSO,Example 15 1000 nM,1.5 fold
same,CD4+ T Cells Perforin %,Example 15 1000 nM,14.2%
same,CD4+ T Cells Perforin Fold vs DMSO,Example 15 1000 nM,1.8 fold
same,CD8+ T Cells CD25 %,Example 15 1000 nM,0.7%
same,CD8+ T Cells CD25 Fold vs DMSO,Example 15 1000 nM,2.2 fold
same,CD8+ T Cells CD28 %,Example 15 1000 nM,0.4%
same,CD8+ T Cells CD28 Fold vs DMSO,Example 15 1000 nM,4.4 fold
same,CD8+ T Cells CD38 %,Example 15 1000 nM,56.8%
same,CD8+ T Cells CD38 Fold vs DMSO,Example 15 1000 nM,2.0 fold
same,CD8+ T Cells CD69 %,Example 15 1000 nM,10.4%
same,CD8+ T Cells CD69 Fold vs DMSO,Example 15 1000 nM,2.2 fold
same,Monocytes CD11c %,Example 15 1000 nM,1.2%
same,Monocytes CD11c Fold vs DMSO,Example 15 1000 nM,1.6 fold
same,Monocytes CD69 %,Example 15 1000 nM,6.2%
same,Monocytes CD69 Fold vs DMSO,Example 15 1000 nM,2.0 fold
same,Monocytes CD80 %,Example 15 1000 nM,86.4%
same,Monocytes CD80 Fold vs DMSO,Example 15 1000 nM,3.0 fold
same,NK Cells CD25 %,Example 15 1000 nM,5.2%
same,NK Cells CD25 Fold vs DMSO,Example 15 1000 nM,10.4 fold
same,NK Cells CD69 %,Example 15 1000 nM,21.1%
same,NK Cells CD69 Fold vs DMSO,Example 15 1000 nM,12.4 fold
same,B Cells CD69 %,Example 15 3000 nM,13.6%
same,B Cells CD69 Fold vs DMSO,Example 15 3000 nM,1.7 fold
same,B Cells CD80 %,Example 15 3000 nM,3.0%
same,B Cells CD80 Fold vs DMSO,Example 15 3000 nM,1.9 fold
same,DCs CD69 %,Example 15 3000 nM,23.2%
same,DCs CD69 Fold vs DMSO,Example 15 3000 nM,8.9 fold
same,DCs CD80 %,Example 15 3000 nM,57.1%
same,DCs CD80 Fold vs DMSO,Example 15 3000 nM,2.0 fold
same,CD4+ T Cells CD25 %,Example 15 3000 nM,3.0%
same,CD4+ T Cells CD25 Fold vs DMSO,Example 15 3000 nM,1.3 fold
same,CD4+ T Cells CD69 %,Example 15 3000 nM,13.1%
same,CD4+ T Cells CD69 Fold vs DMSO,Example 15 3000 nM,1.7 fold
same,CD4+ T Cells Perforin %,Example 15 3000 nM,17.0%
same,CD4+ T Cells Perforin Fold vs DMSO,Example 15 3000 nM,2.1 fold
same,CD8+ T Cells CD25 %,Example 15 3000 nM,0.9%
same,CD8+ T Cells CD25 Fold vs DMSO,Example 15 3000 nM,3.0 fold
same,CD8+ T Cells CD28 %,Example 15 3000 nM,0.5%
same,CD8+ T Cells CD28 Fold vs DMSO,Example 15 3000 nM,4.7 fold
same,CD8+ T Cells CD38 %,Example 15 3000 nM,56.8%
same,CD8+ T Cells CD38 Fold vs DMSO,Example 15 3000 nM,2.0 fold
same,CD8+ T Cells CD69 %,Example 15 3000 nM,11.6%
same,CD8+ T Cells CD69 Fold vs DMSO,Example 15 3000 nM,2.5 fold
same,Monocytes CD11c %,Example 15 3000 nM,1.5%
same,Monocytes CD11c Fold vs DMSO,Example 15 3000 nM,2.1 fold
same,Monocytes CD69 %,Example 15 3000 nM,7.9%
same,Monocytes CD69 Fold vs DMSO,Example 15 3000 nM,2.6 fold
same,Monocytes CD80 %,Example 15 3000 nM,77.4%
same,Monocytes CD80 Fold vs DMSO,Example 15 3000 nM,2.7 fold
same,NK Cells CD25 %,Example 15 3000 nM,4.8%
same,NK Cells CD25 Fold vs DMSO,Example 15 3000 nM,9.6 fold
same,NK Cells CD69 %,Example 15 3000 nM,20.1%
same,NK Cells CD69 Fold vs DMSO,Example 15 3000 nM,11.8 fold
same,Concentrations of maximal activation of NK cells,increased expression of CD25 and CD69,1000 nM
same,Concentrations of maximal activation of B cells,increased expression of CD69 and CD80,3000 nM
